How the values were obtained:
[1] = test system: HEXIM1 expression in MCF7/TOTR cells; experiment: HEXIM1 expression in tamoxifen resistant MCF7/TOTR cells; format: cell-based; conditions: 5 mM HMBA or 50 μM 4a1
Experimental: (§1) FIGS. 9(A-B) illustrate a Western blot and plots showing HEXIM1 expression in MCF7 and MCF7(TOTR) cells in the presence of vehicle (DMSO), 5 mM HMBA or 50 μM 4a1.
(§2) MCF7, MDA-MB-231, and LNCaP cells were obtained from the American Tissue Culture Collection, and were maintained as previously described. Construction of expression vectors for control miRNA or HEXIM1 miRNAs were described previously. MCF7 or LNCaP cells were transfected with expression vectors containing either the HEXIM1 miRNA insert or a control miRNA insert as previously described. Following blasticidin selection, cells expressing the highest level of GFP were flow-sorted and expanded. MDA-MB-231 cells were transfected with control or expression vector for Flag-tagged HEXIM1 as previously described. […]
Cell lysates were analyzed by western blot as previously described. […]
(§3) We have reported that HEXIM1 is required for the ability of antiestrogens to inhibit the activity of the Estrogen Receptor, that loss of HEXIM1 results in agonistic activity of tamoxifen, and that recurrence after tamoxifen therapy can be correlated with loss of HEXIM1 expression in human breast tissue samples. Thus we determined if HMBA and 4a1 can enhance sensitivity to tamoxifen of a tamoxifen resistant breast cancer line (MCF7/TOTR). […]

[2] = test system: tamoxifen resistant breast cancer line (MCF7/TOTR); experiment: MTT proliferation assay, sensitivity to trans-hydroxytamoxifen; format: cell-based; conditions: 7 days, 5 mM HMBA or 50 μM 4a1
Experimental: as §1
as §2, with “expanded.” for “expanded. MDA-MB-231 cells were transfected with control or expression vector for Flag-tagged HEXIM1 as previously described.”
MCF7 cells were plated onto 96 well plates and treated with 17β-estradiol±trans-hydroxytamoxifen in the presence of DMSO (vehicle), HMBA or 4a1 for 7 days. Cell proliferation was assessed using the MTT based Cell Growth Determination Kit from Sigma-Aldrich according to the manufacturer's protocol.
as §3

What does the source list for `COc1ccc(CC(=O)NCCCCCCNC(C)=O)cc1` [Compound 4a1]?
HEXIM1 expression [1]: induced HEXIM1 expression; Sensitivity of TOTR cells to trans-hydroxytamoxifen [2]: enhanced the sensitivity

— patent US10959966B2, “Compositions and methods for modulating HEXM1 expression” (CASE WESTERN RESERVE UNIVERSITY, priority 2014, dated 2021)
